The text below walks through data of US8378172B2, “Methods using acyl-CoA binding proteins to enhance low-temperature tolerance in genetically modified plants” (The University of Hong Kong, priority 2009, dated 2013).

Assay [1] addresses T1, (His)6-ACBP6 (Arabidopsis thaliana, UniProt P57752).
T1 construct: made in house; host or cells: Escherichia coli
Nature of the assay: in vitro filter-binding assay, (His)6-ACBP6/lipid binding on nitrocellulose. The note with it: 1 μg/ml (His)6-ACBP6. The method, then:
A, Purification of (His)6-ACBP6 recombinant protein. […] M, marker; lane 1, flow through fraction; lane 2, washing fraction at pH 6.3; lanes 3-8, eluted fractions at pH 5.9; lanes 9-12, eluted fractions at pH 4.5. B, (His)6-ACBP6/lipid binding on filters. Various concentrations (0, 12.5, 25.0 and 32.5 μM) of lipids (PA, PC and LysoPC) were spotted onto nitrocellulose and incubated with 1 μg/ml of purified (His)6-ACBP6 protein. The (His)6-ACBP6/lipid binding was detected by immunoblotting with HRP-conjugated anti-penta-His antibodies. C, Effect of PC acyl species on (His)6-ACBP6/lipid binding. Fifty μM lipid (PC, 16:0-PC, 18:0-PC, 18:1-PC, 18:2-PC or DMPC) spotted onto nitrocellulose was incubated with 1 μg/ml of purified (His)6-ACBP6 protein. The (His)6-ACBP6/lipid binding was detected by immunoblotting with HRP-conjugated anti-penta-His antibodies. […]
Expression and purification of His-tagged ACBP6 recombinant protein was carried out according to Xiao et al. (Plant J 54: 141-151, 2008). […] Following incubated with the HRP-conjugated anti-penta-His antibodies (1:2,000; QIAGEN, Cat. No. 1014922) for 1 h at RT, the filter was again washed 3 times with TTBS, each for 10 min and then detected with the ECL Western Blotting Detection Kit (Amersham) following the manufacturer's protocols.
T1 sequence (P57752 other isoform, or with tags, fused parts or gaps): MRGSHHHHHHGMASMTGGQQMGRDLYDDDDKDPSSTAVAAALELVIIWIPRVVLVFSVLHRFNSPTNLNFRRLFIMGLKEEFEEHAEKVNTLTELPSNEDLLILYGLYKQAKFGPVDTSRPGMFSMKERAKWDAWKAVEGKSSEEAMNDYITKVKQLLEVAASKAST

In another assay the target is T2, (His)6-ACBP4 (Arabidopsis thaliana, UniProt Q9MA55).
T2 construct: (His)6
T2 sequence (Q9MA55 1-668): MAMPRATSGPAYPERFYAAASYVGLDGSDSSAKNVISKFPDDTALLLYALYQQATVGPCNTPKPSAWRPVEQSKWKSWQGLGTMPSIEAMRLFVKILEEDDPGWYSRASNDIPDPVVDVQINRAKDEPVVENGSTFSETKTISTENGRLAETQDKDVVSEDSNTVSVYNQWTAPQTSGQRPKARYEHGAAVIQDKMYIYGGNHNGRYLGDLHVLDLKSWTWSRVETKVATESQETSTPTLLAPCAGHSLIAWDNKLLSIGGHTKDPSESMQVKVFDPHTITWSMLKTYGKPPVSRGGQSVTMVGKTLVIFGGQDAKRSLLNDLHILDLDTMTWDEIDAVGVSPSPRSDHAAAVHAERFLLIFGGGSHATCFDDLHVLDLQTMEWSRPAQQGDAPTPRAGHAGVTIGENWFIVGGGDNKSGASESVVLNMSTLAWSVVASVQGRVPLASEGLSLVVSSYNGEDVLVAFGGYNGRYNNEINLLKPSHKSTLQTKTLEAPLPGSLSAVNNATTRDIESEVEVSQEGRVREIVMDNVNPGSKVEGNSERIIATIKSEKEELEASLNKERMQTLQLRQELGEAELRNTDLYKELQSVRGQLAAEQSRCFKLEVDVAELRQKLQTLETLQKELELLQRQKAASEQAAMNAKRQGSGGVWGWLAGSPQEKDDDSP
Particulars: recombinant (His)6-ACBP4; read-out: dissociation constant (Kd) in binding oleoyl-CoA esters; cited from earlier work.

The next assay deals with T3, (His)6-ACBP5 (Arabidopsis thaliana, UniProt Q8RWD9).
T3 construct: (His)6
T3 sequence (Q8RWD9 1-648): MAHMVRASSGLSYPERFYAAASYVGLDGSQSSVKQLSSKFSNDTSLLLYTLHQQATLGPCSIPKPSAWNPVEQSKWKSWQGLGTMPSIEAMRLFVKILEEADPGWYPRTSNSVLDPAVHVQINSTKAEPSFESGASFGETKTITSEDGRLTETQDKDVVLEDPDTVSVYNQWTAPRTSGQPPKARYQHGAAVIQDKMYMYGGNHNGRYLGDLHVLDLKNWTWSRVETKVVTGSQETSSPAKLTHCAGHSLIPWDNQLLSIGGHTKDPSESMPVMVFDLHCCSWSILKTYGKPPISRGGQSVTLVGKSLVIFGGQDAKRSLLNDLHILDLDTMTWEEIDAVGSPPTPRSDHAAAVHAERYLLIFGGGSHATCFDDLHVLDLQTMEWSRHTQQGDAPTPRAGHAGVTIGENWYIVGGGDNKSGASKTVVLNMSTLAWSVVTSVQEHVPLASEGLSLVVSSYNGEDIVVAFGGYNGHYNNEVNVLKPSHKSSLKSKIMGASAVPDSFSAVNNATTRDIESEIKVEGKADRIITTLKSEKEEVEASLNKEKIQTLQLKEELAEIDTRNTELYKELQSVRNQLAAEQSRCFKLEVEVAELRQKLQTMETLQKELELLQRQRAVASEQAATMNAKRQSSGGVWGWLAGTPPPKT
The note with it: recombinant (His)6-ACBP5; read-out: dissociation constant (Kd) in binding oleoyl-CoA esters; cited from earlier work.

Assay [2] has as its target T4, (His)6-ACBP6 (Arabidopsis thaliana, UniProt P57752).
T4 construct: (His)6
T4 sequence (P57752 1-92): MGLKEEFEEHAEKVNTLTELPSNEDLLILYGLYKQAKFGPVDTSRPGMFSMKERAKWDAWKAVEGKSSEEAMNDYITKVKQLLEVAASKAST
Particulars: recombinant (His)6-ACBP6; read-out: dissociation constant (Kd) in binding oleoyl-CoA esters; cited from earlier work.

With “1,2-diacyl-sn-glocero-3-phosphocholine [PC]”, the “(His)6-ACBP6/lipid binding on filters” value at (His)6-ACBP6 [1] (0, 12.5, 25.0 and 32.5 μM lipid spotted, FIG. 7B) is on record as “binds”. On to `CCCCCCCCCCCCCC(=O)OC[C@H](COP(=O)([O-])OCC[N+](C)(C)C)OC(=O)CCCCCCCCCCCCC` [DMPC, 1,2-dimyristoyl-sn-glycero-3-phosphocholine], for which the “effect of PC acyl species on (His)6-ACBP6/lipid binding” value on (His)6-ACBP6 [1] (50 μM lipid spotted, FIG. 7C) was “did not bind”. On to `CCCCCCCC/C=C\CCCCCCCC(=O)SCCNC(=O)CCNC(=O)[C@H](O)C(C)(C)COP(=O)(O)OP(=O)(O)OC[C@H]1O[C@@H](n2cnc3c(N)ncnc32)[C@H](O)[C@@H]1OP(=O)(O)O` [oleoyl-CoA], for which the Kd (in general, the free concentration of one partner at which half of the binding sites on the other are occupied at equilibrium, for simple one-to-one binding) was 560 nM on (His)6-ACBP4, 680 nM on (His)6-ACBP5 and 3700 nM at (His)6-ACBP6 [2].
